Measurements as given in publication PMC3828125 (Biochemistry, 2011).
Where two headings read alike, the source gives them in different places. Marks after values point to notes of the source that are not given here.

Key:
[1] = target: T1, CYP3A4 (Homo sapiens, UniProt P08684, S18F); test: Absorbance difference titrations of recombinant CYP3A4 with MDZ and CBZ
[2] = target: T1, CYP3A4
[3] = target: CYP3A4 (Homo sapiens, UniProt P08684); conditions: for Km at 2 min: human, fit to eq 1
[4] = target: T1, CYP3A4; remark: listed apart in the source
[5] = target: T1, CYP3A4; conditions: read-out: Km of 10,11-epoxide formation; ref [26], [89]; cited from earlier work
[6] = target: recombinant human cytochrome P450 3A4 (CYP3A4 NF14 construct) (human) (UniProt P08684); test: SEC
[7] = target: T1, CYP3A4; conditions: read-out: experimental KM for 1′-OH-MDZ formation; ref [23], [86]–[88]; cited from earlier work
[8] = 260 μM Carbamazepine alone, 1 μM CYP3A4
[9] = 260 μM Carbamazepine alone, 1 μM CYP3A4, chemical equivalence (eq 7)
[10] = 260 μM Carbamazepine alone, 1 μM CYP3A4, eq 6
[11] = 260 μM Midazolam alone, 1 μM CYP3A4
[12] = 260 μM Midazolam alone, 1 μM CYP3A4, eq 6
[13] = 260 μM Midazolam with 260 μM Carbamazepine bound simultaneously, 1 μM CYP3A4

NC(=O)N1c2ccccc2C=Cc2ccccc21 [CBZ, carbamazepine]
Amax of the CBZ titration curve ([1]; CBZ alone, fit to eq 3): 0.0049 ± 0.0007 µM⁻¹ cm⁻¹
RFe2+-CO, proton peak aa′ [2, 8]: 1.67 ± 0.11 s⁻¹
RFe2+-CO, proton peak bb′ [2, 8]: 1.54 ± 0.09 s⁻¹
RFe2+-CO, proton peak cc′ [2, 8]: 1.59 ± 0.10 s⁻¹
RFe2+-CO, proton peak dd′ [2, 8]: 1.47 ± 0.09 s⁻¹
RFe2+-CO, proton peak ee′ [2, 8]: 1.52 ± 0.09 s⁻¹
RFe3+, proton peak aa′ [2, 8]: 2.44 ± 0.24 s⁻¹
RFe3+, proton peak bb′ [2, 8]: 2.56 ± 0.33 s⁻¹
RFe3+, proton peak cc′ [2, 8]: 2.38 ± 0.23 s⁻¹
RFe3+, proton peak dd′ [2, 8]: 2.50 ± 0.25 s⁻¹
RFe3+, proton peak ee′ [2, 8]: 2.22 ± 0.20 s⁻¹
RP, proton peak aa′ [2, 8]: 0.77 ± 0.26 s⁻¹
RP, proton peak bb′ [2, 8]: 1.03 ± 0.34 s⁻¹
RP, proton peak cc′ [2, 8]: 0.79 ± 0.25 s⁻¹
RP, proton peak dd′ [2, 8]: 1.03 ± 0.26 s⁻¹
RP, proton peak ee′ [2, 8]: 0.71 ± 0.22 s⁻¹
rmin, proton peak aa′ [2, 9]: 7.02±0.40 ^b Å
rmin, proton peak bb′ [2, 9]: 6.69±0.38 ^b Å
rmin, proton peak cc′ [2, 9]: 6.98±0.37 ^b Å
rmin, proton peak dd′ [2, 9]: 6.69±0.29 ^b Å
rmin, proton peak ee′ [2, 9]: 7.12±0.37 ^b Å
rapp, proton peak bb′ [2, 10]: 7.51±0.42 Å
rapp, proton peak cc′ [2, 10]: 7.84±0.41 Å
rapp, proton peak dd′ [2, 10]: 7.51±0.33 Å
rapp, proton peak ee′ [2, 10]: 7.99±0.41 Å
calculated proton-heme distances on average ([2]; CBZ alone): 7–8 Å
variation in the proton RPs ([2]; CBZ alone): 30%
RP of CBZ protons ([2]; in the presence of MDZ): < 0.04
effect of CBZ on 1′-OH-MDZ and 4-OH-MDZ formation ([3]; low [MDZ], 240 μM CBZ): competitively inhibit
effect of CBZ on 1′-OH-MDZ formation ([3]; saturating CBZ (240 μM), near saturating MDZ): only partially inhibited
%HS of CYP3A4 heme ([4]; 260 μM CBZ, 1 μM CYP3A4 (33% HS without ligands)): 34%
Km [5]: 119 to 442 µM

recombinant human cytochrome P450 3A4 (CYP3A4 NF14 construct) (from UniProt P08684 1-503) (enzyme)
stoichiometry N [6]: 4

Cc1ncc2n1-c1ccc(Cl)cc1C(c1ccccc1F)=NC2 [MDZ, midazolam]
Km [7]: 5 to 11 µM
Δε at 100 μM MDZ in the titration curve ([1]; 120 μM CBZ): ~ 0.015 μM^−1 cm^−1
Amax of the MDZ titration curve ([1]; absence of CBZ): 0.0342 ± 0.0083 µM⁻¹ cm⁻¹
Kd ([1]; human, pH 7.4): 70.6 ± 29 µM
Δε at 100 μM MDZ in the titration curve ([1]; no CBZ): ~ 0.025 μM^−1 cm^−1
RFe2+-CO, proton peak 1′ [2, 11]: 1.53 ± 0.04 s⁻¹
RFe2+-CO, proton peak 3 [2, 11]: 1.45 ± 0.18 s⁻¹
RFe2+-CO, proton peak 3F [2, 11]: 1.46 ± 0.20 s⁻¹
RFe2+-CO, proton peak 4F [2, 11]: 1.91 ± 0.07 s⁻¹
RFe2+-CO, proton peak 5F [2, 11]: 1.72 ± 0.10 s⁻¹
RFe2+-CO, proton peak 6F [2, 11]: 1.83 ± 0.11 s⁻¹
RFe2+-CO, proton peak 7 [2, 11]: 1.67 ± 0.09 s⁻¹
RFe2+-CO, proton peak 9 [2, 11]: 1.65 ± 0.12 s⁻¹
RFe2+-CO, proton peak 10 [2, 11]: 1.81 ± 0.11 s⁻¹
RFe3+, proton peak 1′ [2, 11]: 2.18 ± 0.02 s⁻¹
RFe3+, proton peak 3 [2, 11]: 1.88 ± 0.04 s⁻¹
RFe3+, proton peak 3F [2, 11]: 1.60 ± 0.07 s⁻¹
RFe3+, proton peak 4F [2, 11]: 1.85 ± 0.04 s⁻¹
RFe3+, proton peak 5F [2, 11]: 2.17 ± 0.06 s⁻¹
RFe3+, proton peak 6F [2, 11]: 1.88 ± 0.05 s⁻¹
RFe3+, proton peak 7 [2, 11]: 1.81 ± 0.05 s⁻¹
RFe3+, proton peak 9 [2, 11]: 2.97 ± 0.17 s⁻¹
RFe3+, proton peak 10 [2, 11]: 2.85 ± 0.06 s⁻¹
RP, proton peak 1′ [2, 11]: 0.65 ± 0.05 s⁻¹
RP, proton peak 3 [2, 11]: 0.43 ± 0.18 s⁻¹
RP, proton peak 3F [2, 11]: 0.14 ± 0.21 s⁻¹
RP, proton peak 4F [2, 11]: -0.06 ± 0.08 s⁻¹
RP, proton peak 5F [2, 11]: 0.45 ± 0.11 s⁻¹
RP, proton peak 6F [2, 11]: 0.05 ± 0.12 s⁻¹
RP, proton peak 7 [2, 11]: 0.14 ± 0.10 s⁻¹
RP, proton peak 9 [2, 11]: 1.31 ± 0.20 s⁻¹
RP, proton peak 10 [2, 11]: 1.03 ± 0.12 s⁻¹
rmin, proton peak 4F ([2]; 260 μM Midazolam alone, 1 μM CYP3A4, calculated using the highest RP): 17.02 ^c Å
rmin, proton peak 1′ ([2]; 260 μM Midazolam alone, 1 μM CYP3A4, chemical equivalence (eq 7)): 7.62±0.18 ^b Å
rapp, proton peak 1′ [2, 12]: 9.15±0.22 Å
rapp, proton peak 3 [2, 12]: 9.79±0.71 Å
rapp, proton peak 3F [2, 12]: 11.84±2.95 Å
rapp, proton peak 5F [2, 12]: 9.75±0.46 Å
rapp, proton peak 6F [2, 12]: 14.13±6.01 Å
rapp, proton peak 7 [2, 12]: 11.83±1.50 Å
rapp, proton peak 9 [2, 12]: 8.14±0.27 Å
rapp, proton peak 10 [2, 12]: 8.47±0.24 Å
RFe2+-CO, proton peak 1′ [2, 13]: 1.57 ± 0.04 s⁻¹
RFe2+-CO, proton peak 3 [2, 13]: 1.44 ± 0.12 s⁻¹
RFe2+-CO, proton peak 3F [2, 13]: 1.54 ± 0.18 s⁻¹
RFe2+-CO, proton peak 4F [2, 13]: ~ 1 sec^−1
RFe2+-CO, proton peak 5F [2, 13]: 1.16 ± 0.19 s⁻¹
RFe2+-CO, proton peak 6F [2, 13]: 1.76 ± 0.13 s⁻¹
RFe2+-CO, proton peak 7 [2, 13]: 1.41 ± 0.06 s⁻¹
RFe2+-CO, proton peak 9 [2, 13]: 1.26 ± 0.07 s⁻¹
RFe2+-CO, proton peak 10 [2, 13]: 1.76 ± 0.09 s⁻¹
RFe3+, proton peak 1′ [2, 13]: 2.13 ± 0.04 s⁻¹
RFe3+, proton peak 3 [2, 13]: 1.82 ± 0.06 s⁻¹
RFe3+, proton peak 3F [2, 13]: 2.04 ± 0.05 s⁻¹
RFe3+, proton peak 4F [2, 13]: 1.08 ± 0.05 s⁻¹
RFe3+, proton peak 5F [2, 13]: 1.05 ± 0.04 s⁻¹
RFe3+, proton peak 6F [2, 13]: 1.69 ± 0.24 s⁻¹
RFe3+, proton peak 7 [2, 13]: 1.70 ± 0.05 s⁻¹
RFe3+, proton peak 9 [2, 13]: 2.37 ± 0.07 s⁻¹
RFe3+, proton peak 10 [2, 13]: 2.69 ± 0.06 s⁻¹
RP, proton peak 1′ [2, 13]: 0.56 ± 0.06 s⁻¹
RP, proton peak 3 [2, 13]: 0.38 ± 0.13 s⁻¹
RP, proton peak 3F [2, 13]: 0.50 ± 0.19 s⁻¹
RP, proton peak 4F [2, 13]: 0.07 ± 0.12 s⁻¹
RP, proton peak 5F [2, 13]: -0.11 ± 0.19 s⁻¹
RP, proton peak 6F [2, 13]: -0.07 ± 0.27 s⁻¹
RP, proton peak 7 [2, 13]: 0.29 ± 0.08 s⁻¹
RP, proton peak 9 [2, 13]: 1.11 ± 0.10 s⁻¹
RP, proton peak 10 [2, 13]: 0.93 ± 0.11 s⁻¹
average RP of the fluorophenyl protons ([2]; MDZ alone): 0.15 s⁻¹
average distance of chlorophenyl group from heme ([2]; MDZ alone, calculated from RPs): ~ 10 Å
average distance of fluorophenyl group from heme ([2]; MDZ alone, calculated from RPs): ~ 13 Å
distance of 1′-CH3 from heme ([2]; MDZ alone, depending on the orientation): 7.6–9.2 Å
average RP of the fluorophenyl protons ([2]; MDZ in the presence of CBZ): 0.1 s⁻¹
[MDZ] at which velocity of 1′-OH-MDZ formation reaches a maximum ([3]; absence of CBZ): 25 µM
Km at 2 min ([3]; pH 7.4, Km of 1′-OH-MDZ formation, presence of 240 μM CBZ): 12.5 ± 2.1 µM
Km at 2 min ([3]; pH 7.4, Km of 4-OH-MDZ formation, absence of CBZ): 47.5 ± 6.8 µM
Km at 2 min ([3]; pH 7.4, Km of 4-OH-MDZ formation, presence of 240 μM CBZ): 57.7 ± 2.1 µM
%HS of CYP3A4 heme ([4]; 260 μM MDZ and 260 μM CBZ together, 1 μM CYP3A4): 55%
%HS of CYP3A4 heme ([4]; 260 μM MDZ, 1 μM CYP3A4 (33% HS without ligands)): 70%
